Laboratory results from US20230365568A1, “PLK1 POLO BOX DOMAIN INHIBITORS AND METHOD OF TREATING CANCER” (The United States of America,as represented by the …, priority 2020, published 2023).

Assays:
[1] = Microsomal metabolic stability, rat liver microsomes (RLM); details: rat liver microsomes
Aqueous solubility = details: aqueous solubility

Compound | t1/2 (min, RLM) [1] | Solub. (Aqueous solubility) [µg/mL] | PAMPA [×10⁻⁶ cm/s] | Solub. (μg/ml) (Aqueous solubility) | PAMPA permeability (pH 7.4)
O=C(Cc1ccc(O)cc1)NCCCn1c(=O)c2cc(F)ccc2n2c(=S)[nH]nc12 [compound 127, N-(3-(7-fluoro-5-oxo-1-thioxo-1,2-dihydro-[1,2,4]triazolo[4,3-a]quinazolin-4(5H)-yl)propyl)-2-(4-hydroxyphenyl)acetamide] | >30 min | 31.0 | – | – | –
CN1CCN(CCn2c(=O)c3cc(F)ccc3n3c(=S)[nH]nc23)CC1 [compound 91] | >30 min | >54 | – | – | –
O=c1c2cc(Cl)ccc2n2c(=S)[nH]nc2n1CCC(F)(F)F [compound 55] | >30 min | 5.1 | 257 | – | –
CN(C)c1ccc2c(c1)c(=O)n(CCc1ccccc1)c1n[nH]c(=S)n21 [Cmpd 45] | – | – | 356 | – | –
O=c1c2ccccc2n2c(=O)[nH]nc2n1CCc1ccccc1 [compound 15] | – | <1 | – | – | –
O=c1c2cc(F)ccc2n2c(=S)[nH]nc2n1CCc1ccccc1Cl [compound 81] | 22.8 min | 3.0 | – | – | –
O=c1c2cc(F)ccc2n2c(=S)[nH]nc2n1CCc1cccnc1 [Cmpd 84] | – | – | <1 | – | –
CC(C)(C)OC(=O)N1CCN(CCn2c(=O)c3cc(F)ccc3n3c(=S)[nH]nc23)CC1 [compound 92] | 26.3 min | 20.5 | – | – | –
CCCn1c(=O)c2ccccc2n2c(=S)n(CN(C)C3CC3)nc12 [compound 35] | – | – | – | Insol. | –
CCn1c(=O)c2ccccc2n2c(=S)[nH]nc12 [compound 20] | >30 min | >36 | 427 | – | –
CCCn1c(=O)c2ccccc2n2c(=S)n(CN(CC)CC(C)C)nc12 [compound 38] | – | 8.7 | – | – | –
O=c1c2cc(F)ccc2n2c(=S)[nH]nc2n1CCN1CCOCC1 [compound 90] | >30 min | >52 | 67.0 | – | –
4-(3-aminopropyl)-9-fluoro-1-thioxo-2,4-dihydro-[1,2,4]triazolo[4,3-a]quinazolin-5(1H)-one [compound 69] | >30 min | – | – | – | –
CC(C)n1c(=O)c2ccccc2n2c(=S)[nH]nc12 [compound 26] | – | 19.5 | – | – | –
O=c1c2cc(F)ccc2n2cnnc2n1CCc1ccccc1 [compound 18] | 11.8 min | 14.8 | 924 | – | –
CNC(=S)N1CN(CCc2ccccc2)C(=O)c2cc(F)ccc21 [compound 62] | 2.2 min | 4.5 | 161 | – | –
O=c1c2cc(F)ccc2n2c(=S)[nH]nc2n1CCN1CCC(F)(F)CC1 [compound 89] | >30 min | 20.2 | 234 | – | –
Nc1nnc2n(CCc3ccccc3)c(=O)c3cc(F)ccc3n12 [compound 16] | 29.4 min | 2.2 | 885 | – | –
O=c1c2cc(F)ccc2n2c(=S)[nH]nc2n1CCc1ccccn1 [compound 83] | >30 min | 13.0 | 355 | – | moderate to good permeability
O=c1c2ccccc2n2c(=S)[nH]nc2n1CCC(F)(F)F [compound 27] | >30, min | 23.3 | 82 | – | –
O=c1c2cc(F)ccc2n2c(=S)[nH]nc2n1Cc1ccccc1 [compound 52] | >30 min | 8.3 | 841 | – | –
O=C(Cc1ccc(F)cc1)NCCCn1c(=O)c2cc(F)ccc2n2c(=S)[nH]nc12 [compound 123, N-(3-(7-fluoro-5-oxo-1-thioxo-1,2-dihydro-[1,2,4]triazolo[4,3-a]quinazolin-4(5H)-yl)propyl)-2-(4-fluorophenyl)acetamide] | 26.3 min | – | – | – | –
Cc1nnc2n(CCc3ccccc3)c(=O)c3cc(F)ccc3n12 [compound 17] | 10.7 min | 11.0 | – | – | –
O=C(NCCCn1c(=O)c2cc(F)ccc2n2c(=S)[nH]nc12)c1ccc(Cn2ccnc2)cc1 [compound 119, 4-((1H-imidazol-1-yl)methyl)-N-(3-(7-fluoro-5-oxo-1-thioxo-1,2-dihydro-[1,2,4]triazolo[4,3-a]quinazolin-4(5H)-yl)propyl)benzamide] | >30 min | 13.7 | – | – | –
CC(C)OCCCn1c(=O)c2cc(Cl)ccc2n2c(=S)[nH]nc12 [compound 56] | – | 8.6 | – | – | –
O=C(Cc1cccc(C(F)(F)F)c1)NCCCn1c(=O)c2cc(F)ccc2n2c(=S)[nH]nc12 [compound 132, N-(3-(7-fluoro-5-oxo-1-thioxo-1,2-dihydro-[1,2,4]triazolo[4,3-a]quinazolin-4(5H)-yl)propyl)-2-(3-(trifluoromethyl)phenyl)acetamide] | 17.3 min | 26.8 | – | – | –
CN1CCCC1CCn1c(=O)c2cc(F)ccc2n2c(=S)[nH]nc12 (centres unmarked) [compound 87] | >30 min | 17.8 | – | – | –

Second part, the compound after the results:

t1/2 (min, RLM) [1] | Solub. (Aqueous solubility) [µg/mL] | PAMPA [×10⁻⁶ cm/s] | Solub. (μg/ml) (Aqueous solubility) | PAMPA permeability (pH 7.4) | Compound
– | 8.1 | – | – | – | CC(C)NC(=O)CCn1c(=O)c2cc(Cl)ccc2n2c(=S)[nH]nc12 [compound 57]
>30 min | >45 | 177 | – | – | CN(C)CCn1c(=O)c2cc(F)ccc2n2c(=S)[nH]nc12 [compound 70]
>30 min | 37.5 | – | – | – | O=C(CC1CCNCC1)NCCCn1c(=O)c2cc(F)ccc2n2c(=S)[nH]nc12 [compound 116]
– | 15 | 229 | – | – | CC(C)(C)OC(=O)N1CC(CCn2c(=O)c3cc(F)ccc3n3c(=S)[nH]nc23)C1 [compound 86]
>30 min | >43 | 222 | – | – | O=c1c2cc(F)ccc2n2c(=S)[nH]nc2n1CCCO [compound 66]
>30 min | 31.8 | – | – | – | NCCCCCC(=O)NCCCn1c(=O)c2cc(F)ccc2n2c(=S)[nH]nc12 [compound 100]
– | – | 405 | – | – | CC(C)(C)OC(=O)NCCCCCC(=O)NCCCn1c(=O)c2cc(F)ccc2n2c(=S)[nH]nc12 [Cmpd 101]
>30 min | 21.9 | 267 | – | – | O=C(NCCCn1c(=O)c2cc(F)ccc2n2c(=S)[nH]nc12)c1ccccc1 [compound 74]
– | <1 | 8.0 | – | – | O=C(NCCCn1c(=O)c2cc(F)ccc2n2c(=S)[nH]nc12)C1CCOCC1 [compound 115]
>30 min | >58 | 155 | – | – | O=C(NCCCn1c(=O)c2cc(F)ccc2n2c(=S)[nH]nc12)C1CCCC1 [compound 108]
8.8 min | <1 | – | – | – | O=c1c2cc(F)ccc2n2c(=S)[nH]nc2n1CCCc1ccccc1 [compound 53]
25.1 min | 20.4 | – | – | – | CC(C)(C)OC(=O)CC[C@@H](NC(=O)OC(C)(C)C)C(=O)NCCCn1c(=O)c2cc(F)ccc2n2c(=S)[nH]nc12 [compound 102]
>30 min | >64 | <1 | – | – | CN1CCN(CC(=O)NCCCn2c(=O)c3cc(F)ccc3n3c(=S)[nH]nc23)CC1 [compound 117]
>30 min | 38.8 | – | – | – | NC1CCC(C(=O)NCCCn2c(=O)c3cc(F)ccc3n3c(=S)[nH]nc23)CC1 (centres unmarked) [compound 111]
>30 min | >41 | – | – | – | NCCn1c(=O)c2cc(F)ccc2n2c(=S)[nH]nc12 [compound 67]
>30 min | 34 | – | – | – | CS(=O)(=O)NCCCn1c(=O)c2cc(F)ccc2n2c(=S)[nH]nc12 [compound 76]
>30 min | 42.4 | 3.0 | – | – | NS(=O)(=O)CCCC(=O)NCCCn1c(=O)c2cc(F)ccc2n2c(=S)[nH]nc12 [compound 107]
– | – | 744 | – | – | CC(C)(C)OC(=O)CC[C@H](NC(=O)OC(C)(C)C)C(=O)NCCCn1c(=O)c2cc(F)ccc2n2c(=S)[nH]nc12 [Cmpd 103]
24.8 min | >77 | 330 | – | – | CC(C)(C)OC(=O)NC1CCC(C(=O)NCCCn2c(=O)c3cc(F)ccc3n3c(=S)[nH]nc23)CC1 (centres unmarked) [compound 110]
>30 min | >60 | – | – | – | O=C(NCCCn1c(=O)c2cc(F)ccc2n2c(=S)[nH]nc12)C1CCCCN1 (centres unmarked) [compound 112]
– | 30.8 | – | – | – | CC(C)CNC(=O)CCn1c(=O)c2ccccc2n2c(=S)[nH]nc12 [compound 32]
>30 min | 36.1 | – | – | – | NCCOCCOCCOCCC(=O)NCCCn1c(=O)c2cc(F)ccc2n2c(=S)[nH]nc12 [compound 98]
>30 min | 1.1 | – | – | – | CC(C)(C)[C@H]1CC[C@H](C(=O)NCCCn2c(=O)c3cc(F)ccc3n3c(=S)[nH]nc23)CC1 [compound 109]
– | >51 | – | – | – | O=c1c2cc(F)ccc2n2c(=S)[nH]nc2n1CCP(=O)(O)O [compound 77]
>30 min | 29.6 | – | – | – | O=C(NCCCn1c(=O)c2cc(F)ccc2n2c(=S)[nH]nc12)C1CCCNC1 (centres unmarked) [compound 113]
>30 min | >60 | – | – | – | O=C(NCCCn1c(=O)c2cc(F)ccc2n2c(=S)[nH]nc12)C1CCNCC1 [compound 114]
>30 min | >47 | – | – | – | CC(=O)NCCn1c(=O)c2cc(F)ccc2n2c(=S)[nH]nc12 [compound 72]
>30 min | >59 | – | – | – | CCOP(=O)(CCn1c(=O)c2cc(F)ccc2n2c(=S)[nH]nc12)OCC [compound 78]
>30 min | >39 | – | – | – | CCn1c(=O)c2cc(F)ccc2n2c(=S)[nH]nc12 [compound 63]
